What was measured:
[1] = biological target: T1, cloned human GLP-1 receptor (Homo sapiens, UniProt P43220); assay: Functional cell-based assay: cAMP functional assay; settings: for Emax: 0.5 h, percentage relative to maximal GLP-1-induced cAMP accumulation, na = not active in the assay, read-out: % activation
T1 construct: expressed in transfected cells; host or cells: CHO or HEK-293 cells
How it was run: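 Monolayer cells incubated 30 min at 37 °C with compounds (0.0001–100 μM) in IMDM containing 100 μM RO 20-1724 PDE inhibitor, 0.1% BSA and 2% DMSO. cAMP measured by HTRF.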

human GLP-1 receptor = biological target: T2, human GLP-1 receptor (Homo sapiens, UniProt P43220); assay: Receptor binding assay: [125I]GLP-1 (aa 7-36) equilibrium radioligand binding; settings: membranes from HEK-293 or CHO cells expressing the human GLP-1 receptor; room temp 120 min
T2 construct: expressed in transfected cells; host or cells: HEK-293 or CHO cells (membranes)
T2 sequence (P43220 24-463): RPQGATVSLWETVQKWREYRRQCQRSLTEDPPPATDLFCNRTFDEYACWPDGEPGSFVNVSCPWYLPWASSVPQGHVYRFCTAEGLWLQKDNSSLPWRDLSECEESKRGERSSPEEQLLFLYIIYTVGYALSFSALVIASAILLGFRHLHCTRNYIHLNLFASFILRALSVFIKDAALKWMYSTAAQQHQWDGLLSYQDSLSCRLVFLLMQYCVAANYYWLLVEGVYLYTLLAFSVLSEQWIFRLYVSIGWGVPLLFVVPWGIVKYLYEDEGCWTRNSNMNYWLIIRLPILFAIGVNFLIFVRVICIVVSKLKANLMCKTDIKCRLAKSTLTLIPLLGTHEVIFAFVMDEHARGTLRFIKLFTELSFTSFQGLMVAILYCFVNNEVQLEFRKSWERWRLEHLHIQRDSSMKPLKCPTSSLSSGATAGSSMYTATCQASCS
Experimental: Reactions were carried out in 96-well plates. Compound was diluted in 20% DMSO/water. The final assay concentration ranging from 0.1 nM to 100 uM in 2% final DMSO concentration was used. […] Plates were washed 5 times with cold 25 mM Tris-HCL, pH 7.5 containing 0.05% bovine serum albumin (BSA). Following filtration, 50 uL of Microscint PS (Packard part no. 6013631) was added, plates were sealed with TopSeal-A adhesive seals (Packard part no. 6005185). ^125I isotope bound to the Unifilter-96 GF/C plates was counted using a TopCount instrument (Packard).
Percent inhibition of [^125I] […] The IC50 values were calculated by fitting the data using parameters for a sigmoidal dose response, variable slope nonlinear regression (GraphPAD Prizm, San Diego, Calif.) according to the equation: Y=Bottom+(Top-Bottom)/(1+10^((Log EC50−X)*HillSlope)) wherein, X is the logarithm of concentration and Y is the response, and Y starts at Bottom and goes to Top with a sigmoid shape. This is identical to the four parameter logistic equation.

T1 sequence (P43220 24-463): as above

| Compound | EC50 [1] [µM] | Emax [1] [%] | % binding vs [125I]GLP-1 (human GLP-1 receptor) [%] |
| --- | --- | --- | --- |
| CN1C(=O)C(c2ccc(OCc3ccc(Cl)c(Cl)c3)cc2)Oc2cc3c(cc21)C[C@@H](C(=O)N[C@@H](Cc1ccc(-c2ccc(C#N)cc2)cc1)C(=O)O)N(CC1(c2ccccc2)CCCC1)C3 (stereo partly drawn) [Example 77, (S)-3-(4′-Cyano-biphenyl-4-yl)-2-{[(S)-3-[4-(3,4-dichloro-benzyloxy)-phenyl]-1-methyl-2-oxo-6-(1-phenyl-cyclopentylmethyl)-2,3,5,6,7,8-hexahydro-1H-4-oxa-1,6-diaza-anthracene-7-carbonyl]-amino}-propionic acid] | 1.71 | 53 |  |
| CC(c1ccccc1)N1Cc2cc3c(cc2C[C@H]1C(=O)N[C@@H](Cc1ccc(-c2ccc(C#N)cc2)cc1)C(=O)O)N(C)C(=O)C(c1ccc(OCc2ccc(Cl)c(Cl)c2)cc1)O3 (stereo partly drawn) [Example 80, (S)-3-(4′-Cyano-biphenyl-4-yl)-2-{[(S)-3-[4-(3,4-dichloro-benzyloxy)-phenyl]-1-methyl-2-oxo-6-(1-phenyl-ethyl)-2,3,5,6,7,8-hexahydro-1H-4-oxa-1,6-diaza-anthracene-7-carbonyl]-amino}-propionic acid] | 0.066 | 16 |  |
| O=C1Nc2cc3c(cc2OC1c1ccc(OCc2ccc(Cl)c(Cl)c2)cc1)CN(C(=O)c1ccccc1)[C@H](C(=O)N[C@@H](Cc1ccc(-c2ccncc2)cc1)C(=O)O)C3 (stereo partly drawn) [Example 83, (S)-2-({(S)-6-Benzoyl-3-[4-(3,4-dichloro-benzyloxy)-phenyl]-2-oxo-2,3,5,6,7,8-hexahydro-1H-4-oxa-1,6-diaza-anthracene-7-carbonyl}-amino)-3-(4-pyridin-4-yl-phenyl)-propionic acid] | 0.71 | 18 |  |
| O=C1Nc2cc3c(cc2OC1c1ccc(OCc2ccc(Cl)c(Cl)c2)cc1)CN(C(=O)c1ccccc1)[C@H](C(=O)N[C@@H](Cc1ccc(-c2ccc(Cl)cc2)cc1)C(=O)O)C3 (stereo partly drawn) [Example 84, (S)-2-({(S)-6-Benzoyl-3-[4-(3,4-dichloro-benzyloxy)-phenyl]-2-oxo-2,3,5,6,7,8-hexahydro-1H-4-oxa-1,6-diaza-anthracene-7-carbonyl}-amino)-3-(4′-chloro-biphenyl-4-yl)-propionic acid] | 0.92 | 43 |  |
| Cc1ccc(-c2ccc(C[C@H](NC(=O)[C@@H]3Cc4cc5c(cc4CN3Cc3ccccn3)OC(c3ccc(OCc4ccc(Cl)c(Cl)c4)cc3)C(=O)N5)C(=O)O)cc2)cc1 (stereo partly drawn) [Example 85, (S)-2-({(S)-3-[4-(3,4-Dichloro-benzyloxy)-phenyl]-2-oxo-6-pyridin-2-ylmethyl-2,3,5,6,7,8-hexahydro-1H-4-oxa-1,6-diaza-anthracene-7-carbonyl}-amino)-3-(4′-methyl-biphenyl-4-yl)-propionic acid] | 2 | 55 |  |
| CC[C@@H](c1ccccc1)N1Cc2cc3c(cc2C[C@H]1C(=O)N[C@@H](Cc1ccc(-c2ccc(C#N)cc2)cc1)C(=O)O)N(C)C(=O)[C@@H](c1ccc(OCc2ccc(Cl)c(Cl)c2)cc1)O3 [Example 86, (S)-3-(4′-Cyano-biphenyl-4-yl)-2-{[(3R,7S)-3-[4-(3,4-dichloro-benzyloxy)-phenyl]-1-methyl-2-oxo-6-((S)-1-phenyl-propyl)-2,3,5,6,7,8-hexahydro-1H-4-oxa-1,6-diaza-anthracene-7-carbonyl]-amino}-propionic acid] | 0.0593 | 58 |  |
| CC[C@@H](c1ccccc1)N1Cc2cc3c(cc2C[C@H]1C(=O)N[C@@H](Cc1ccc(-c2ccc(C#N)cc2)cc1)C(=O)O)N(C)C(=O)[C@H](c1ccc(OCc2ccc(Cl)c(Cl)c2)cc1)O3 [Example 87, (S)-3-(4′-Cyano-biphenyl-4-yl)-2-{[(3S,7S)-3-[4-(3,4-dichloro-benzyloxy)-phenyl]-1-methyl-2-oxo-6-((S)-1-phenyl-propyl)-2,3,5,6,7,8-hexahydro-1H-4-oxa-1,6-diaza-anthracene-7-carbonyl]-amino}-propionic acid] | 0.0645 | 82 |  |
| CC[C@H](c1ccccc1)N1Cc2cc3c(cc2C[C@H]1C(=O)N[C@@H](Cc1ccc(-c2ccc(C#N)cc2)cc1)C(=O)O)N(C)C(=O)[C@H](c1ccc(OCc2ccc(Cl)c(Cl)c2)cc1)O3 [Example 88, (S)-3-(4′-Cyano-biphenyl-4-yl)-2-{[(3S,7S)-3-[4-(3,4-dichloro-benzyloxy)-phenyl]-1-methyl-2-oxo-6-((R)-1-phenyl-propyl)-2,3,5,6,7,8-hexahydro-1H-4-oxa-1,6-diaza-anthracene-7-carbonyl]-amino}-propionic acid] |  |  | 60 |

The remaining lines, values ahead:

| EC50 [1] [µM] | Emax [1] [%] | % binding vs [125I]GLP-1 (human GLP-1 receptor) [%] | Compound |
| --- | --- | --- | --- |
| 1.23 | 43 |  | CC[C@@H](c1ccccc1)N1Cc2cc3c(cc2C[C@H]1C(=O)N[C@@H](Cc1ccc(-c2ccc(Cl)cc2)cc1)C(=O)O)N(C)C(=O)[C@@H](c1ccc(OCc2ccc(Cl)c(Cl)c2)cc1)O3 [Example 90, (S)-3-(4′-Chloro-biphenyl-4-yl)-2-{[(3R,7S)-3-[4-(3,4-dichloro-benzyloxy)-phenyl]-1-methyl-2-oxo-6-((S)-1-phenyl-propyl)-2,3,5,6,7,8-hexahydro-1H-4-oxa-1,6-diaza-anthracene-7-carbonyl]-amino}-propionic acid] |
| 0.725 | 39 |  | CC[C@@H](c1ccccc1)N1Cc2cc3c(cc2C[C@H]1C(=O)N[C@@H](Cc1ccc(-c2ccc(OC)cc2)cc1)C(=O)O)N(C)C(=O)[C@@H](c1ccc(OCc2ccc(Cl)c(Cl)c2)cc1)O3 [Example 91, (S)-2-{[(3R,7S)-3-[4-(3,4-Dichloro-benzyloxy)-phenyl]-1-methyl-2-oxo-6-((S)-1-phenyl-propyl)-2,3,5,6,7,8-hexahydro-1H-4-oxa-1,6-diaza-anthracene-7-carbonyl]-amino}-3-(4′-methoxy-biphenyl-4-yl)-propionic acid] |
| 0.723 | 30 |  | CC[C@@H](c1ccccc1)N1Cc2cc3c(cc2C[C@H]1C(=O)N[C@@H](Cc1ccc(-c2ccc(F)cc2)cc1)C(=O)O)N(C)C(=O)[C@@H](c1ccc(OCc2ccc(Cl)c(Cl)c2)cc1)O3 [Example 92, (S)-2-{[(3R,7S)-3-[4-(3,4-Dichloro-benzyloxy)-phenyl]-1-methyl-2-oxo-6-((S)-1-phenyl-propyl)-2,3,5,6,7,8-hexahydro-1H-4-oxa-1,6-diaza-anthracene-7-carbonyl]-amino}-3-(4′-fluoro-biphenyl-4-yl)-propionic acid] |
| 0.138 | 31 |  | CC[C@@H](c1ccccc1)N1Cc2cc3c(cc2C[C@H]1C(=O)N[C@@H](Cc1ccc(-c2ccc(Cl)cc2)cc1)C(=O)O)N(C)C(=O)[C@H](c1ccc(OCc2ccc(Cl)c(Cl)c2)cc1)O3 [Example 93, (S)-3-(4′-Chloro-biphenyl-4-yl)-2-{[(3S,7S)-3-[4-(3,4-dichloro-benzyloxy)-phenyl]-1-methyl-2-oxo-6-((S)-1-phenyl-propyl)-2,3,5,6,7,8-hexahydro-1H-4-oxa-1,6-diaza-anthracene-7-carbonyl]-amino}-propionic acid] |
| 0.424 | 41 |  | CC[C@@H](c1ccccc1)N1Cc2cc3c(cc2C[C@H]1C(=O)N[C@@H](Cc1ccc(-c2ccc(OC)cc2)cc1)C(=O)O)N(C)C(=O)[C@H](c1ccc(OCc2ccc(Cl)c(Cl)c2)cc1)O3 [Example 94, (S)-2-{[(3S,7S)-3-[4-(3,4-Dichloro-benzyloxy)-phenyl]-1-methyl-2-oxo-6-((S)-1-phenyl-propyl)-2,3,5,6,7,8-hexahydro-1H-4-oxa-1,6-diaza-anthracene-7-carbonyl]-amino}-3-(4′-methoxy-biphenyl-4-yl)-propionic acid] |
| 0.362 | 8.5 |  | Cc1noc(C)c1S(=O)(=O)N1Cc2cc3c(cc2C[C@H]1C(=O)N[C@@H](Cc1ccc(-c2ccc(C#N)cc2)cc1)C(=O)O)N(C)C(=O)C(c1ccc(OCc2ccc(Cl)c(Cl)c2)cc1)O3 (stereo partly drawn) [Example 96, (S)-3-(4′-Cyano-biphenyl-4-yl)-2-{[(S)-3-[4-(3,4-dichloro-benzyloxy)-phenyl]-6-(3,5-dimethyl-isoxazole-4-sulfonyl)-1-methyl-2-oxo-2,3,5,6,7,8-hexahydro-1H-4-oxa-1,6-diaza-anthracene-7-carbonyl]-amino}-propionic acid] |
| 0.626 | 42 |  | CC[C@@H](c1ccccc1)N1Cc2cc3c(cc2C[C@H]1C(=O)N[C@H](Cc1ccc(-c2ccc(C#N)cc2)cc1)C(=O)O)N(C)C(=O)[C@@H](c1ccc(OCc2ccc(Cl)c(Cl)c2)cc1)O3 [Example 98, (R)-3-(4′-Cyano-biphenyl-4-yl)-2-{[(3R,7S)-3-[4-(3,4-dichloro-benzyloxy)-phenyl]-1-methyl-2-oxo-6-((S)-1-phenyl-propyl)-2,3,5,6,7,8-hexahydro-1H-4-oxa-1,6-diaza-anthracene-7-carbonyl]-amino}-propionic acid] |
| 1 | 28 |  | O=C1Nc2cc3c(cc2OC1c1ccc(OCc2ccc(Cl)c(Cl)c2)cc1)CN(C(=O)c1ccccc1)[C@H](C(=O)N[C@@H](Cc1ccc(Oc2ccncc2)cc1)C(=O)O)C3 (stereo partly drawn) [Example 99, (S)-2-({(S)-6-Benzoyl-3-[4-(3,4-dichloro-benzyloxy)-phenyl]-2-oxo-2,3,5,6,7,8-hexahydro-1H-4-oxa-1,6-diaza-anthracene-7-carbonyl}-amino)-3-[4-(pyridin-4-yloxy)-phenyl]-propionic acid] |

Reference: patent publication US7906507B2, “Oxadiazoanthracene compounds for the treatment of diabetes” (TransTech Pharma, Inc., priority 2008, dated 2011)
